# Tests used:
# Plasma = conditions: human
# physchem = conditions: octanol/water, pH 7.4
# [1] = AUC in po dosed Balb/c mouse infected with Mycobacterium tuberculosis H37Rv administered via gavage for 10 days starting 3 days post-infection measured at day 9 of drug dosing; type: ADME, organism-based; conditions: plasma
structure (smiles),measurement,setting,value
CCNC(=O)Nc1nc2cc(-c3ccn(CCOC)c(=O)c3)c(N[C@H]3CCOC3)nc2s1,Cp(f),Plasma,13 µM
C=CCNC(=O)Nc1nc2cc(-c3cccnc3)ccc2s1,Cp(f),Plasma,0.7 µM
same,logD,physchem,3.9
C=CCNC(=O)Nc1nc2cc(-c3cccnc3)cnc2s1,Cp(f),Plasma,3.2 µM
same,logD,physchem,2.9
CCNC(=O)Nc1nc2cc(-c3cccnc3)c(N[C@H]3CCOC3)nc2s1,AUC,[1],200 µg·h/mL
same,Cp(f),Plasma,28 µM
same,logD,physchem,2
CCNC(=O)Nc1nc2cc(-c3cccnc3)c(NCC3CCOC3)nc2s1 (stereo not drawn),Cp(f),Plasma,40 µM
same,logD,physchem,2.7
CCNC(=O)Nc1nc2cc(-c3ccc(F)nc3)c(OCC3CCOC3)nc2s1 (stereo not drawn),Cp(f),Plasma,0.6 µM
CCNC(=O)Nc1nc2cc(-c3ccc(C)nc3)c(OCC3CCOC3)nc2s1 (stereo not drawn),Cp(f),Plasma,0.9 µM
CCNC(=O)Nc1nc2cc(-c3cncc(OC)c3)c(OCC3CCOC3)nc2s1 (stereo not drawn),Cp(f),Plasma,2.5 µM
CCNC(=O)Nc1nc2cc(-c3cnc(C)nc3)c(OCC3CCOC3)nc2s1 (stereo not drawn),Cp(f),Plasma,6 µM
CCNC(=O)Nc1nc2cc(-c3ccc(C#N)nc3)c(NC3CCOCC3)nc2s1,Cp(f),Plasma,6 µM
CCNC(=O)Nc1nc2cc(-c3cncc(OCCN(C)C)c3)c(OCC3CCOC3)nc2s1 (stereo not drawn),Cp(f),Plasma,11 µM
CCNC(=O)Nc1nc2cc(-c3cncc(OCCN4CCOCC4)c3)c(OCC3CCOC3)nc2s1 (stereo not drawn),Cp(f),Plasma,10 µM
CCNC(=O)Nc1nc2cc(-c3ccn(C)c(=O)c3)c(OCC3CCOC3)nc2s1 (stereo not drawn),Cp(f),Plasma,5 µM
CCNC(=O)Nc1nc2cc(-c3cc(C(C)C)n(C)c(=O)c3)c(OCC3CCOC3)nc2s1 (stereo not drawn),Cp(f),Plasma,4 µM
CCNC(=O)Nc1nc2cc(-c3ccn(CCOC)c(=O)c3)c(OCC3CCOC3)nc2s1 (stereo not drawn),Cp(f),Plasma,7 µM
CCNC(=O)Nc1nc2cc(-c3ccn(CCOC)c(=O)c3)c(O[C@@H]3CCOC3)nc2s1,Cp(f),Plasma,11 µM
CCNC(=O)Nc1nc2cc(-c3ccn(CCN(C)C)c(=O)c3)c(OCC3CCOC3)nc2s1 (stereo not drawn),Cp(f),Plasma,5 µM
CCNC(=O)Nc1nc2cc(-c3ccn(CCN4CCOCC4)c(=O)c3)c(OCC3CCOC3)nc2s1 (stereo not drawn),Cp(f),Plasma,5 µM
